Data set [1] is described as follows: DRUGMATRIX: Potassium Channel [KATP] radioligand binding (ligand: [3H] Glyburide). The following applies: hit-t15; Not Active = under 50% inhibition at 10 µM. The format is cell membranes, Membrane.
Data set [2] concerns the target C-C chemokine receptor type 2 (Homo sapiens, UniProt P41597). The format is cell membranes, Membrane. The following applies: cho-k1. Also: in other assays of this panel Not Active means under 50% inhibition at 10 µM.
The nature of data set [3]: DRUGMATRIX: Phosphodiesterase PDE4 enzyme inhibition (substrate: [3H]cAMP + cAMP). The note with it: u-937, Not Active = under 50% inhibition at 10 µM.
Another data set concerns the target T1, Cytochrome P450 1A2 (Homo sapiens, UniProt P05177). Also: in other assays of this panel Not Active means under 50% inhibition at 10 µM.
T1 sequence (P05177 whole entry): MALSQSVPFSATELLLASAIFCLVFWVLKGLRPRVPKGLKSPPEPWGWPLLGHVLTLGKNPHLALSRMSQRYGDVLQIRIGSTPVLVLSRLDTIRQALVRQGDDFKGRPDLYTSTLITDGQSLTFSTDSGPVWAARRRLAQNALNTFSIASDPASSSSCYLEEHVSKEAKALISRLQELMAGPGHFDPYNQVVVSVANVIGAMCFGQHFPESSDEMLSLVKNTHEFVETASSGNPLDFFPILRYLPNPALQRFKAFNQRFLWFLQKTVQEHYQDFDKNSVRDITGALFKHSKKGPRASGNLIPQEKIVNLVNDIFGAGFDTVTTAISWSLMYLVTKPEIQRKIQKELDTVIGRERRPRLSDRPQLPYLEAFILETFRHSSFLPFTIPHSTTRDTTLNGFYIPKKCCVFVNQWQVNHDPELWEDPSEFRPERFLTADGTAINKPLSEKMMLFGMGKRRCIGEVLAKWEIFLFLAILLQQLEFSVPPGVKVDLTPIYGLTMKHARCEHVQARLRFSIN
The note with it: bti-tn-5b1-4.

For data set [4], the target named is Prostaglandin G/H synthase 1 (Homo sapiens, UniProt P23219). As to the kind of experiment: biochemical. Format: tissue-based, Platelet. The following applies: platelet.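 Also: inhibition of COX-1 enzyme activity, with arachidonic acid supplied as substrate; in other assays of this panel Not Active means under 50% inhibition at 10 µM.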
Prostaglandin G/H synthase 1, sequence (P23219 whole entry): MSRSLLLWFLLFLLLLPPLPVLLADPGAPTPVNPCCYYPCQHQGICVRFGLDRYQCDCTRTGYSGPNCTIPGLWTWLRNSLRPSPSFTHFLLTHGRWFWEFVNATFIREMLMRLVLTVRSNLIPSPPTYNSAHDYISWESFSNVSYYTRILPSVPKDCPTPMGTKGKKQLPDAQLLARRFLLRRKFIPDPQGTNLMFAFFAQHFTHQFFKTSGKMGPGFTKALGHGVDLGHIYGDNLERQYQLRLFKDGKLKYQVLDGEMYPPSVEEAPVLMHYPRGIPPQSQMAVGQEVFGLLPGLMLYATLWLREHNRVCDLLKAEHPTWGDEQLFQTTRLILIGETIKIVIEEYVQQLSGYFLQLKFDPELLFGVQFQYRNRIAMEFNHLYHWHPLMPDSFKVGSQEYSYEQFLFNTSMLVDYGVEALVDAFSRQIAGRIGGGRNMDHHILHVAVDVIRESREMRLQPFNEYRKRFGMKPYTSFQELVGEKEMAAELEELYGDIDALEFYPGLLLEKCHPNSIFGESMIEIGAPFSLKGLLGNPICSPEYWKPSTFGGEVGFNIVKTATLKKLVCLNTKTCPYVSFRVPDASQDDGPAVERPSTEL
In the next data set the target is T2, D(4) dopamine receptor (Homo sapiens, UniProt P21917).
T2 sequence (P21917 whole entry): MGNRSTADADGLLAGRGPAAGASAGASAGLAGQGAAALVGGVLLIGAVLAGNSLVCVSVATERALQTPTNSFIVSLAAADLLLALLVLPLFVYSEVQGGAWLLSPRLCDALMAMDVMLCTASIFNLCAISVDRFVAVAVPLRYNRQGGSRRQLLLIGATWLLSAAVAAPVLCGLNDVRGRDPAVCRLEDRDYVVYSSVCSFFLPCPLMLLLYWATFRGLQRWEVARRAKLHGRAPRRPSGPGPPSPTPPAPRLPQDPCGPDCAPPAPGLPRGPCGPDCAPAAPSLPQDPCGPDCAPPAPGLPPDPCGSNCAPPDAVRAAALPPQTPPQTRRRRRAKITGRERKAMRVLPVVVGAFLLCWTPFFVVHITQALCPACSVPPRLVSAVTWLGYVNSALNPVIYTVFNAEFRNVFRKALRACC
Put plainly: DRUGMATRIX: Dopamine D4.2 radioligand binding (ligand: [3H] Spiperone). The format is cell membranes, CHO-K1, Membrane. The note with it: cho-k1; Not Active = under 50% inhibition at 10 µM.

Data set [5] can be described thus: DRUGMATRIX: Phorbol Ester radioligand binding (ligand: [3H] PDBu). The format is cell membranes, Mus musculus, ICR, Brain, Membrane. The note with it: Not Active = under 50% inhibition at 10 µM.

C-C chemokine receptor type 2, sequence (P41597 whole entry): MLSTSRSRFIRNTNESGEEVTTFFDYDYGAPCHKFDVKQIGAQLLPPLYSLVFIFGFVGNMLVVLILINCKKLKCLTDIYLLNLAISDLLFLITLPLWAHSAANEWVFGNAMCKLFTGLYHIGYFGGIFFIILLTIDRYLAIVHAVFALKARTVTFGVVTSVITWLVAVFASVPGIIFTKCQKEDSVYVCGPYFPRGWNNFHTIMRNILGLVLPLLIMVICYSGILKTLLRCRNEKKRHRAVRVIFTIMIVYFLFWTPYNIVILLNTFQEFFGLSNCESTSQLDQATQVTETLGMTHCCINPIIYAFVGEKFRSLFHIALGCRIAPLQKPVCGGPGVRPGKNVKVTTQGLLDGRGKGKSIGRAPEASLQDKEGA

The IC50 is the concentration needed to halve the response being measured. Turning to `CN1CCN(c2c(F)cc3c(=O)c(C(=O)O)cn(CCF)c3c2F)CC1` [FLEROXACIN], the IC50 result (in data set [1]; in data set [2]; in data set [3]; on Cytochrome P450 1A2; in data set [4]; on D(4) dopamine receptor) was “Not Active” throughout. For the same molecule, in data set [5], the IC50 entry is “Not Active”. The Ki entry (in data set [1]; in data set [3]; at Cytochrome P450 1A2; in data set [5]) was “Not Active” in each case.

With `O=c1[nH]c(=O)n([C@H]2C[C@H](O)[C@@H](CO)O2)cc1F` [FLOXURIDINE], the half-maximal inhibitory concentration (IC50) result (in data set [1]; in data set [2]; in data set [3]; at Cytochrome P450 1A2; in data set [4]; at D(4) dopamine receptor) was “Not Active” in each case. The 50% inhibitory concentration (IC50) result in data set [5] is “Not Active”. The Ki result (in data set [1]; in data set [3]; at Cytochrome P450 1A2; in data set [5]) was “Not Active” throughout.

With `COC(=O)Nc1nc2cc(C(=O)c3ccc(F)cc3)ccc2[nH]1` [FLUBENDAZOLE], the IC50 entry (in data set [1]; in data set [2]; in data set [3]; against Cytochrome P450 1A2; in data set [4]; at D(4) dopamine receptor) was “Not Active” throughout. In addition, the half-inhibitory concentration (IC50) entry in data set [5] was “Not Active”. The Ki entry (in data set [1]; in data set [3]; at Cytochrome P450 1A2; in data set [5]) was “Not Active” each time.

In the case of `CC(=O)OCC(=O)[C@@]1(O)CC[C@H]2[C@@H]3CCC4=CC(=O)CC[C@]4(C)[C@@]3(F)[C@@H](O)C[C@@]21C` [FLUDROCORTISONE ACETATE], the half-inhibitory concentration (IC50) result (in data set [1]; in data set [2]; in data set [3]; on Cytochrome P450 1A2; in data set [4]; at D(4) dopamine receptor) was “Not Active” each time. In data set [5], the IC50 result is recorded as “Not Active”. Moreover, the Ki entry (in data set [1]; in data set [3]; on Cytochrome P450 1A2; in data set [5]) was “Not Active” each time.

Take `CCOC(=O)c1ncn2c1CN(C)C(=O)c1cc(F)ccc1-2` [FLUMAZENIL]: the half-maximal inhibitory concentration (IC50) entry (in data set [1]; in data set [2]; in data set [3]; on Cytochrome P450 1A2; in data set [4]; on D(4) dopamine receptor) was “Not Active” each time. Also, the IC50 result in data set [5] is “Not Active”. For the same molecule, the Ki entry (in data set [1]; in data set [3]; at Cytochrome P450 1A2; in data set [5]) was “Not Active” in each case.

Turning to `O=C(O)P(=O)(O)O` [FOSCARNET], the IC50 entry (in data set [1]; in data set [2]; in data set [3]; against Cytochrome P450 1A2; in data set [4]; at D(4) dopamine receptor) was “Not Active” in each case. Further, the IC50 result in data set [5] was “Not Active”. Moreover, the Ki result (in data set [1]; in data set [3]; on Cytochrome P450 1A2; in data set [5]) was “Not Active” in each case.

As to `Cc1ccc(C)c(OCCCC(C)(C)C(=O)O)c1` [GEMFIBROZIL], the IC50 entry (in data set [1]; in data set [2]; in data set [3]; against Cytochrome P450 1A2; in data set [4]; at D(4) dopamine receptor) was “Not Active” in each case. For the same molecule, in data set [5], the concentration for half-maximal inhibition (IC50) result is “Not Active”. For the same molecule, the Ki result (in data set [1]; in data set [3]; at Cytochrome P450 1A2; in data set [5]) was “Not Active” in each case.

Regarding `O=c1c(-c2ccc(O)cc2)coc2cc(O)cc(O)c12` [GENISTEIN], the concentration for half-maximal inhibition (IC50) result in data set [1] was “Not Active”; in data set [2] it was “Not Active”; in data set [3] (read-out: IC50), 10.9 µM; against Cytochrome P450 1A2, “Not Active”; in data set [4], “Not Active”; on D(4) dopamine receptor, “Not Active”. Further, the half-inhibitory concentration (IC50) entry in data set [5] is “Not Active”. Besides, the Ki entry (in data set [1]; at Cytochrome P450 1A2; in data set [5]) was “Not Active” throughout.

The record behind these values is ChEMBL document CHEMBL1909046, “DrugMatrix in vitro pharmacology data”.
